Data published in EP4368729A1, “MOLECULES TARGETING RIBOSOMAL PROTEIN RPL40 FOR USE IN COSMETICS AND THE TREATMENT OF DISEASES OF THE SKIN” (Merck Patent GmbH, priority 2022, dated 2024).
“Also recorded” adds a separate entry of the source.

Biological target: T1, rpL40 (Saccharomyces cerevisiae, UniProt P0CH08)
T1 construct: endogenous in cells; host or cells: S. cerevisiae diploid strain (BY2n / BY4743 background) co-transformed with the TE-FF and REN reporter plasmids
Test: Biological activity of prospective L40 binders: tropoelastin-firefly / renilla dual luciferase reporter in yeast cells
Format: cell-based
Settings: treatment at 1nM, 10nM, 100nm, 1µM, 10µM and 100µM; replicates n=3; Figs. 3-5
Experimental: The present invention will now be described further in the following examples with reference to the accompanying Figures, nevertheless, without being limited thereto. […] The wildtype (abbreviated WT) is shown as a red dot. […] Replicates n=3, and treatment was made at 1nM, 10nM, 100nm, 1µM, 10µM, and 100µM concentration of compounds.
Wildtype (BY2n) and variant ribosomal protein yeast strains (Kelly DE, Lamb DC, Kelly SL. Genome-wide generation of yeast gene deletion strains. Comp Funct Genomics. 2001;2(4):236-42. doi: 10.1002/cfg.95. PMID: 18628917; PMCID: PMC2447215), that were co-transformed with the tropoelastin-firefly and the renilla protein expression reporter plasmids were used for overnight cultures using single colony inoculation. Cell density (OD600) was determined using a Hitachi U_3000 spectrophotometer. […]
Dual luciferase assay readouts were performed with the GloMax Multi Detection System using the Dual-Luciferase® Reporter Assay System (Promega). For each dual luciferase luminescence measurement, 50 µl of a cell culture (5×10^5 cells) were transferred into a 96-well plate and lysed through addition of 20 µl passive lysis buffer (Promega) for one minute, following the instruction of the supplier. FF luminescence readout was detected upon addition of 50 µl of LAR II substrate, and then REN luminescence signal was recorded after the addition of 50 µl Stop & Glo® substrate. […]

T1 sequence (P0CH08 77-128): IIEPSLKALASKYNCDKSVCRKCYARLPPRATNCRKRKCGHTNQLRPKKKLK

CCCC(Oc1cccc(C(=N)N)c1)C(=O)Nc1ccc2c(c1)S(=O)(=O)c1ccccc1-2 (stereo not shown) [Compound 22]
translation in yeast cells: decreasing translation; also recorded: lowered translation
